Reference: ChEMBL document CHEMBL1201862, “PubChem BioAssay data set” (2004)
Active and inactive are the calls of the source.

Assays:
Hexokinase HKDC1 = target: T1, Hexokinase HKDC1 (Homo sapiens, UniProt Q2TB90); test: SAR analysis of small molecule inhibitors of hexokinase domain containing I (HKDC1). [Related pubchem assays (depositor defined):AID493160, AID493190]; format: functional
T1 sequence (Q2TB90 whole entry): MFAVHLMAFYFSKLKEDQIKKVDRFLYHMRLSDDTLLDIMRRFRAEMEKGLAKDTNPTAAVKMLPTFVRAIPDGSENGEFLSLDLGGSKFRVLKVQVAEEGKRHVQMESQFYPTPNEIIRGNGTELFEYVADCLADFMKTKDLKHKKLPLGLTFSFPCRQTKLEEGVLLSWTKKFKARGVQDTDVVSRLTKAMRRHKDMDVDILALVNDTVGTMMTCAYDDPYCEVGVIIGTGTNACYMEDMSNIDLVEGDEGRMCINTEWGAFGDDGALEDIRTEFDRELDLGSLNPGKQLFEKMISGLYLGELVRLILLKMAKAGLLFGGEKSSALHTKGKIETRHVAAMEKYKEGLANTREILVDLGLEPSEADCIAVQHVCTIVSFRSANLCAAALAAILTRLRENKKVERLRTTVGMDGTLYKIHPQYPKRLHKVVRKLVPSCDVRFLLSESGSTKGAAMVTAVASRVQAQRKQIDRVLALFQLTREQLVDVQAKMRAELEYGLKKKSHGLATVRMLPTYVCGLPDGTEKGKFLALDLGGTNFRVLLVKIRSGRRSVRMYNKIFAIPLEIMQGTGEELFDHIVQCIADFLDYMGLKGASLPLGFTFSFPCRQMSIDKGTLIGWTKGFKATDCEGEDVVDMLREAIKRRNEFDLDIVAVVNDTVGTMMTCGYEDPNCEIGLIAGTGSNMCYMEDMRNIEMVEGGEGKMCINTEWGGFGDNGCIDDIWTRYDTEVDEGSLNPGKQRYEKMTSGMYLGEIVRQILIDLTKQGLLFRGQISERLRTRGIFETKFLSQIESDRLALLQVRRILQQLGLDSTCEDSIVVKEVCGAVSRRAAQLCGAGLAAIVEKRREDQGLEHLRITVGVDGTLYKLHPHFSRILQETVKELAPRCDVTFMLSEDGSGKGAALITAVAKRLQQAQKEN

Hexokinase-1 = target: T2, Hexokinase-1 (Homo sapiens, UniProt P19367); test: SAR analysis of small molecule inhibitors of hexokinase domain containing I (HKDC1) in the hexokinase 1 selectivity assay. [Related pubchem assays (depositor defined):AID493160, AID493190]; format: functional
T2 sequence (P19367 whole entry): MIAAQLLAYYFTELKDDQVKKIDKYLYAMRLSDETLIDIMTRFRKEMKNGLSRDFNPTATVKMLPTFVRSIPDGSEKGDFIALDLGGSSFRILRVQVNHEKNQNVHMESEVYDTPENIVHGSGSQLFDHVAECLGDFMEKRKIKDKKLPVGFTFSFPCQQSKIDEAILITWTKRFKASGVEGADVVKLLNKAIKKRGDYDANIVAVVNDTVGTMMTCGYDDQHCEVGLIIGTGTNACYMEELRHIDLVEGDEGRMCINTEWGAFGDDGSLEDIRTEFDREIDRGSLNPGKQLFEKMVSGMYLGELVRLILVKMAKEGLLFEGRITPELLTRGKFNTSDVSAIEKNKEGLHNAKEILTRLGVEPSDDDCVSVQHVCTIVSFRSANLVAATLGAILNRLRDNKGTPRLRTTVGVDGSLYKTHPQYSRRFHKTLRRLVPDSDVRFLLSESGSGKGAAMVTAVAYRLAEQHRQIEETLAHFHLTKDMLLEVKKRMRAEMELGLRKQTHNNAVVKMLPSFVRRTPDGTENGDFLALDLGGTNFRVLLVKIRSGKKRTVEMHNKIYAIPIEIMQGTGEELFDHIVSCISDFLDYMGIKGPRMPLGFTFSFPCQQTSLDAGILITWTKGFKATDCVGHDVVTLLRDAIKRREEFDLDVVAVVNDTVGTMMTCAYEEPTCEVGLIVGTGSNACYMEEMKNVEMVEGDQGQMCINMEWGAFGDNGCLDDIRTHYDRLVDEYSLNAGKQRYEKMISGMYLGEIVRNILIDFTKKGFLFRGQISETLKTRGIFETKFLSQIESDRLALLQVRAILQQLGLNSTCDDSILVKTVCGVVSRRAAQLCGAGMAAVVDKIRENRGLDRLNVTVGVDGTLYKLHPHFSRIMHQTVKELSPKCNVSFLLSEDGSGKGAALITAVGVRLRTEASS

[1] = target: Disintegrin and metalloproteinase domain-containing protein 17 (Homo sapiens, UniProt P78536); test: inhibition of ADAM17 substrate cleavage – biochemical, quenched FRET substrate, counter-screen for ADAM10 exosite inhibitor project, dose response (AID 743253)
Disintegrin and metalloproteinase domain-containing protein 17, sequence (P78536 whole entry, the tested form may be a part): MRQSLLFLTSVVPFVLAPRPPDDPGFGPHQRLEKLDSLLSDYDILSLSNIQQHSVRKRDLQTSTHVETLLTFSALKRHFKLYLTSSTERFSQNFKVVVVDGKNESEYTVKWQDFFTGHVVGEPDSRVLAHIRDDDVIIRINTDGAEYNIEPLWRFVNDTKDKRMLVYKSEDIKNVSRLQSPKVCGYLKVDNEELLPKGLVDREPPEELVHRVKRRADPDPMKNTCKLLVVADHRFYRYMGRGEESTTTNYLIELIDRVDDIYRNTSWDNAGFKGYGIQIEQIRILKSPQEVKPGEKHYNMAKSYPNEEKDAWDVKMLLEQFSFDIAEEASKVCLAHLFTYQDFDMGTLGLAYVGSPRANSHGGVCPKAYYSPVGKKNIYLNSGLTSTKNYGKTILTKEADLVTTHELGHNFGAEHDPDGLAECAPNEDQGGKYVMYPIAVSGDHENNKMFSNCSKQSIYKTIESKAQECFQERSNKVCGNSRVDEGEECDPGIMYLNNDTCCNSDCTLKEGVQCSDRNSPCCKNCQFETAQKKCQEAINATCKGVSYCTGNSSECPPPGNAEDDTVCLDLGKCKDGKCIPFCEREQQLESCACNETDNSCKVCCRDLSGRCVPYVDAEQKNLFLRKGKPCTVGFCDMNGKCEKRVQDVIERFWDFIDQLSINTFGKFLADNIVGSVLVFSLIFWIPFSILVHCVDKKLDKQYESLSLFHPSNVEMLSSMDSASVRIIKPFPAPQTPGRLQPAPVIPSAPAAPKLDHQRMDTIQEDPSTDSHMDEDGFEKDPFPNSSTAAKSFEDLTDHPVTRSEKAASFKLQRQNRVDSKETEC

DNA topoisomerase = DNA topoisomerase (Yersinia pestis, UniProt A0A2S9PM60); test: Yersinia topoisomerase I cleavage product accumulation – biochemical, cherry-pick, dose response (AID 588525)
DNA topoisomerase, sequence (A0A2S9PM60 whole entry): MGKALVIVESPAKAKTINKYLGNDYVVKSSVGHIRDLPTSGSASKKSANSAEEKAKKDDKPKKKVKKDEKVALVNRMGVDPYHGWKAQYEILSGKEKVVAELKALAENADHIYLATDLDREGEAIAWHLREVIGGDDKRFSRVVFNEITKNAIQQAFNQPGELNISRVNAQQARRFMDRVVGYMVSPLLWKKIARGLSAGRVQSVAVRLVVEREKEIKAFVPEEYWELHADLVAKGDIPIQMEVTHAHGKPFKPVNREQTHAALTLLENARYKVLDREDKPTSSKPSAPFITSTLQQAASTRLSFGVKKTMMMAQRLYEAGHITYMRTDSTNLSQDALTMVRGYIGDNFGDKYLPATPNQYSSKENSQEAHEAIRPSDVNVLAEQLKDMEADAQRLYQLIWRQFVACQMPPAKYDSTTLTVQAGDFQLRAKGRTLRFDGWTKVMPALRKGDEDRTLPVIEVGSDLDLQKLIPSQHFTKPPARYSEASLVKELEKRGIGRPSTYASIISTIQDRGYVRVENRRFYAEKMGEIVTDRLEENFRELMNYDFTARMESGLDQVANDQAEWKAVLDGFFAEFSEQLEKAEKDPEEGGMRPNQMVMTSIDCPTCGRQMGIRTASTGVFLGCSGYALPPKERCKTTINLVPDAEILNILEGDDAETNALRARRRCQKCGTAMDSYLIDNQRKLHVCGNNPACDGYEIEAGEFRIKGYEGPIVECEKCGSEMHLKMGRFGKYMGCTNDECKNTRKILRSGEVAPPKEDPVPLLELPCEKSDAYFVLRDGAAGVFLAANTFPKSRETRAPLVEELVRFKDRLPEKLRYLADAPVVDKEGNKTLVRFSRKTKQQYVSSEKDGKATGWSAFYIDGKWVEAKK

[2] = potency of ADAM10 substrate cleavage blockers – biochemical, QFRET, dose response (AID 743254);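 note: ADAM10 enzyme with the DM2 quenched FRET peptide as substrate; EDANS fluorescence gain as the protease cuts the substrate; inhibitor potency against ADAM10 proteolytic activity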
[3] = target: T3, Sentrin-specific protease 8 (Homo sapiens, UniProt Q96LD8); test: inhibition of sentrin protease 8 – biochemical, luminescence, set 2, SAR follow-up (AID 588601); format: functional
T3 sequence (Q96LD8 whole entry): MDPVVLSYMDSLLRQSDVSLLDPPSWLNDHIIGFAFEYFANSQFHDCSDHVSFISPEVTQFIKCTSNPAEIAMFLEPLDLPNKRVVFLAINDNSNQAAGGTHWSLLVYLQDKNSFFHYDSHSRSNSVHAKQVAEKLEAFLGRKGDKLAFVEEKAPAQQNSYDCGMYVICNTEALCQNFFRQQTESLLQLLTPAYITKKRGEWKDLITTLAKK

[4] = target: T4, Sentrin-specific protease 7 (Homo sapiens, UniProt Q9BQF6); test: inhibition of human SENP7 cleavage activity – biochemical, luminescence, set 2, SAR follow-up (AID 588600); format: functional
T4 sequence (Q9BQF6 whole entry): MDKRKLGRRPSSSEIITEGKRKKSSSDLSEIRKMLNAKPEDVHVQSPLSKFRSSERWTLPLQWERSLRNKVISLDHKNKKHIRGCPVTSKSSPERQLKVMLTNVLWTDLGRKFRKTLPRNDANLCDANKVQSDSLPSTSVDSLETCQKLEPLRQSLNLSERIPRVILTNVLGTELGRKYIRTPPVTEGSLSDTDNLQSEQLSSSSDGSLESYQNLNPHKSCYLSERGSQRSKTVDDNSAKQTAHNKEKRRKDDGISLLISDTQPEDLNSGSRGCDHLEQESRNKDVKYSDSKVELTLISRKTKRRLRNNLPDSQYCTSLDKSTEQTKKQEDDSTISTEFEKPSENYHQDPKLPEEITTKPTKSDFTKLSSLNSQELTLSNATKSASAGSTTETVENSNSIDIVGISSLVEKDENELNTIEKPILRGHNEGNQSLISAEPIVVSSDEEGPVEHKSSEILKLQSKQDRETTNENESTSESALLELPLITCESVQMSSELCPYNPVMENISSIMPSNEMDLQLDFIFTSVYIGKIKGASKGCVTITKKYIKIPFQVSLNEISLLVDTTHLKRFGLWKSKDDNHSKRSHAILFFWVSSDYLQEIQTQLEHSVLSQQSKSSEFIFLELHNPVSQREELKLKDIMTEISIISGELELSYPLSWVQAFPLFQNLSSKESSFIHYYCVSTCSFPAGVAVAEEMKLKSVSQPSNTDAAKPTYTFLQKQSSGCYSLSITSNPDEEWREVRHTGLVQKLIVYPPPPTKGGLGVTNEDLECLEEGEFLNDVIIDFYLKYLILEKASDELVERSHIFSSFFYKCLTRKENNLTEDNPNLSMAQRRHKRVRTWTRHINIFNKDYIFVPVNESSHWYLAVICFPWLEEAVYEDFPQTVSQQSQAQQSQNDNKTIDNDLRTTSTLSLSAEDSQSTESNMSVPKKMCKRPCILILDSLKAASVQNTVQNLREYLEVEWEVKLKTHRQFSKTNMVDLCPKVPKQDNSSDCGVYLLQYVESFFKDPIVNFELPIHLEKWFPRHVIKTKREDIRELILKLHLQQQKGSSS

[5] = target: T4, Sentrin-specific protease 7; test: inhibition of human SENP7 cleavage activity – biochemical, luminescence, SAR follow-up (AID 504497); format: functional
[6] = target: T5, Sentrin-specific protease 6 (Homo sapiens, UniProt Q9GZR1); test: inhibition of human SENP6 catalytic domain – biochemical, luminescence, set 2, SAR follow-up (AID 588598); format: functional
T5 sequence (Q9GZR1 whole entry): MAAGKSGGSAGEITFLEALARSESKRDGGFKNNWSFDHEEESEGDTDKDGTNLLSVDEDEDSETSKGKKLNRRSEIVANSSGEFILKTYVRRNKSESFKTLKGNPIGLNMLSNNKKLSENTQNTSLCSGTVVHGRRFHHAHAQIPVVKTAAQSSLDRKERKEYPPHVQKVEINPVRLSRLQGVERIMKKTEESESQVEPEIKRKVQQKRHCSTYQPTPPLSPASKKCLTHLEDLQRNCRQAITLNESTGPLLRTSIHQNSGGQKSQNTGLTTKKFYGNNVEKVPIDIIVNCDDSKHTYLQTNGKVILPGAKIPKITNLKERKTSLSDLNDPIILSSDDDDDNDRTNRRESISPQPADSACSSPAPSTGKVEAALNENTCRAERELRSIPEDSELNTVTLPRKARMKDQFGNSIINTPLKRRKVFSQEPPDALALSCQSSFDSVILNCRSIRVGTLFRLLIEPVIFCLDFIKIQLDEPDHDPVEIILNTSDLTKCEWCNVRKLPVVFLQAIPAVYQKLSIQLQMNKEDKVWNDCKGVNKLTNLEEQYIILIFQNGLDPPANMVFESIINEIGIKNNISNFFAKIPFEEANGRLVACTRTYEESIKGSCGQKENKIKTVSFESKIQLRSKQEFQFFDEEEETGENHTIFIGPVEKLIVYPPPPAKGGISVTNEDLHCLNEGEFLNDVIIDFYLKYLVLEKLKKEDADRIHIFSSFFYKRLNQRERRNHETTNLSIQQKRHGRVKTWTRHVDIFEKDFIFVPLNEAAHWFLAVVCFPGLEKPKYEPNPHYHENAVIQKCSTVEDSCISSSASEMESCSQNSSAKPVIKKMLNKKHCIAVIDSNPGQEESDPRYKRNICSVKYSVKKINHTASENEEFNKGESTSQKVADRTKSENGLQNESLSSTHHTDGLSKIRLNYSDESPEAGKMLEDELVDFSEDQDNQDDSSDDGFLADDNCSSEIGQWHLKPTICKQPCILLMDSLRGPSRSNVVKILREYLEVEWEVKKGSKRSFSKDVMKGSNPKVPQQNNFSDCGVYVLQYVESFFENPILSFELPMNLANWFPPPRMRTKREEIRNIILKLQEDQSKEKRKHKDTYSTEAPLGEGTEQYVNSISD

Caspase-3 [7] = target: T6, Caspase-3 (Homo sapiens, UniProt P42574); test: inhibition of recombinant caspase-3 activity – biochemical, luminescence, set 2, selectivity assay for SENP protease inhibitor project, SAR follow-up (AID 588599); format: functional
T6 sequence (P42574 whole entry): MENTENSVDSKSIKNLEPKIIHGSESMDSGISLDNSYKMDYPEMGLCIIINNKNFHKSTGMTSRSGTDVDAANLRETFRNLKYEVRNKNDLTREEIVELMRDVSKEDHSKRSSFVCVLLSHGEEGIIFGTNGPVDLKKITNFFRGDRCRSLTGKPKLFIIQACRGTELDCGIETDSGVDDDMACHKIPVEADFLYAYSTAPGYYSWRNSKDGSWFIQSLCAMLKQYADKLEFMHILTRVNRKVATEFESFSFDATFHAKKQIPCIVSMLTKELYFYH

Caspase-3 [8] = target: T6, Caspase-3; test: SAR Analysis of small molecule inhibitors of Sentrin-specific proteases (SENPs) using a Caspase-3 Selectivity assay. [Related pubchem assays (depositor defined):AID2540, AID2599, AID434973, AID489001]; format: functional
[9] = target: T3, Sentrin-specific protease 8; test: inhibition of human SENP8 cleavage activity – biochemical, luminescence, SAR follow-up (AID 504501); format: functional
[10] = target: T5, Sentrin-specific protease 6; test: SAR Analysis of small molecule inhibitors of Sentrin-specific protease 6 (SENP6) using a Luminescent assay. [Related pubchem assays (depositor defined):AID2582, AID2599]; format: functional
HEK293 [11] = test: SAR Analysis of small molecule inhibitors of B-cell specific antigen receptor-induced NF-kB activation in a HEK-293T cell line using a luminescence assay - Set 2. [Related pubchem assays (depositor defined):AID435022, AID435025, AID489021]; format: functional, cell-based; details: Homo sapiens
HEK293 [12] = test: HEK293T cell viability loss, resazurin readout – resazurin fluorescence, cytotoxicity control for NF-kB activator project, SAR follow-up (AID 493251); format: functional, cell-based; details: Homo sapiens
Jurkat = test: SAR Analysis of small molecule inhibitors of […] specific antigen receptor-induced NF-kB activation in a Jurkat cell line using a luminescence assay - Set 3. [Related pubchem assays (depositor defined):AID435022, AID435025, AID465]; format: functional, cell-based; details: Homo sapiens

Q: With `O=c1c2ccccc2nc(/C=C/c2ccccn2)n1-c1ccccc1` as the compound, how does the IC50 (Hexokinase HKDC1) read?
A: The IC50 was > 80 µM (inactive).

Q: And the IC50 (Hexokinase-1)?
A: The IC50 was > 80 µM (inactive).

Q: Which results are given for `Cc1cc(C)c2c(=O)n3c(nc2c1)C(Cc1ccc(O)cc1)NC(=O)c1cc2ccccc2cc1-3` (stereo unspecified)?
A: IC50 [1]: > 69.5 µM (inactive); AC50 (DNA topoisomerase): 9.07 µM (active); IC50 [2]: > 69.5 µM (inactive)

Q: Which IC50 [3] does the source give for `CCCCc1ccc2nc(NC(=O)c3nccs3)sc2c1` here?
A: The IC50 was 4.9 µM (active).

Q: And the IC50 [4]?
A: Its IC50 is 6.32 µM (active).

Q: What about the IC50 [5] of the same compound?
A: The IC50 was 3.3 µM (active).

Q: And the IC50 [6]?
A: Its IC50 is 7.43 µM (active).

Q: And the IC50 (Caspase-3 [7])?
A: Its IC50 is 4.83 µM (active).

Q: And the IC50 (Caspase-3 [8])?
A: The IC50 was 5.4 µM (active).

Q: And the IC50 [9]?
A: Its IC50 is 5.4 µM (active).

Q: What about the IC50 [10] of the same compound?
A: The IC50 was 4.4 µM (active).

Q: With `COc1cccc(NC(=O)CCc2nc(-c3ccc(C(C)(C)C)cc3)no2)c1` as the compound, how does the IC50 (HEK293 [11]) read?
A: The IC50 was 0.24 µM (active).

Q: What about the IC50 (HEK293 [12]) of the same compound?
A: Its IC50 is > 80 µM (inactive).

Q: And the IC50 (Jurkat)?
A: Its IC50 is 0.242 µM (active).
